System: 299254-011-R-J1-PDC complex spheroids viability
Assay: Anticancer human tumor 299254-011-R-J1-PDC patient-derived melanoma cell line growth inhibition [GQUAD]
Details: for IC50: curve of first compound; for viability, T/C: stronger effect = lower value
How it was run: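 Tumor cells were grown as complex spheroids with HUVEC endothelial cells and mesenchymal stem cells as stroma. G-quadruplex stabilizers were combined with targeted agents over half-log dilutions from near the clinical Cmax, or from 10 microM.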
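Further: spheroids exposed to the agents for seven days before readout.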
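Wherever viability, T/C is given: percent viability relative to DMSO vehicle control wells = 100%.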

## C=CCn1c(=O)c2cnc(Nc3ccc(N4CCN(C)CC4)cc3)nc2n1-c1cccc(C(C)(C)O)n1 + Cc1cnc(CNC(=O)c2c(=O)c3ccc(N4CCCN(C)CC4)nc3n3c2sc2ccccc23)cn1
Second compound 0.0316 µM
  IC50: 1540 nM
Second compound 0.1 µM
  IC50: 1500 nM
Second compound 0.316 µM
  IC50: 1180 nM
Second compound 1 µM
  IC50: 678 nM
Second compound 3.16 µM
  IC50: 607 nM
Second compound 10 µM
  IC50: < 31.6 nM
Second compound 0.0316 µM, first compound 0.0316 µM
  viability, T/C: 118%
Second compound 0.0316 µM, first compound 0.1 µM
  viability, T/C: 109%
Second compound 0.0316 µM, first compound 0.316 µM
  viability, T/C: 100%
Second compound 0.0316 µM, first compound 1 µM
  viability, T/C: 55.2%
Second compound 0.0316 µM, first compound 3.16 µM
  viability, T/C: 41%
Second compound 0.0316 µM, first compound 10 µM
  viability, T/C: 25.3%
Second compound 0.1 µM, first compound 0.0316 µM
  viability, T/C: 109%
Second compound 0.1 µM, first compound 0.1 µM
  viability, T/C: 112%
Second compound 0.1 µM, first compound 0.316 µM
  viability, T/C: 77.3%
Second compound 0.1 µM, first compound 1 µM
  viability, T/C: 64.2%
Second compound 0.1 µM, first compound 3.16 µM
  viability, T/C: 31.5%
Second compound 0.1 µM, first compound 10 µM
  viability, T/C: 27.1%
Second compound 0.316 µM, first compound 0.0316 µM
  viability, T/C: 89.8%
Second compound 0.316 µM, first compound 0.1 µM
  viability, T/C: 125%
Second compound 0.316 µM, first compound 0.316 µM
  viability, T/C: 88.2%
Second compound 0.316 µM, first compound 1 µM
  viability, T/C: 55%
Second compound 0.316 µM, first compound 3.16 µM
  viability, T/C: 30.1%
Second compound 0.316 µM, first compound 10 µM
  viability, T/C: 30.1%
Second compound 1 µM, first compound 0.0316 µM
  viability, T/C: 75.3%
Second compound 1 µM, first compound 0.1 µM
  viability, T/C: 80.8%
Second compound 1 µM, first compound 0.316 µM
  viability, T/C: 71.9%
Second compound 1 µM, first compound 1 µM
  viability, T/C: 38.6%
Second compound 1 µM, first compound 3.16 µM
  viability, T/C: 27.9%
Second compound 1 µM, first compound 10 µM
  viability, T/C: 24.4%
Second compound 3.16 µM, first compound 0.0316 µM
  viability, T/C: 73.3%
Second compound 3.16 µM, first compound 0.1 µM
  viability, T/C: 74.9%
Second compound 3.16 µM, first compound 0.316 µM
  viability, T/C: 55.5%
Second compound 3.16 µM, first compound 1 µM
  viability, T/C: 44.4%
Second compound 3.16 µM, first compound 3.16 µM
  viability, T/C: 28.9%
Second compound 3.16 µM, first compound 10 µM
  viability, T/C: 20.2%
Second compound 10 µM, first compound 0.0316 µM
  viability, T/C: 19%
Second compound 10 µM, first compound 0.1 µM
  viability, T/C: 15.2%
Second compound 10 µM, first compound 0.316 µM
  viability, T/C: 41.8%
Second compound 10 µM, first compound 1 µM
  viability, T/C: 36.9%
Second compound 10 µM, first compound 3.16 µM
  viability, T/C: 0.45%
Second compound 10 µM, first compound 10 µM
  viability, T/C: 0.32%

Reference: PubChem BioAssay AID2060513 (Molecular Pharmacology Branch, DTP, NCI, 2025)
